Test results: patent US20220204510A1, “2,3-DIHYDRO-1H-PYRROLIZINE-7-FORMAMIDE DERIVATIVE AND APPLICATION THEREOF” (CHIA TAI TIANQING PHARMACEUTICAL GROUP CO., LTD., priority 2018, published 2022)

Test system: HBV
Test: qPCR test in the HBV in vitro test (HBV DNA in HepG2.2.15 cells)
Assay type: cell-based
Conditions: Hepatitis B virus, 192 h, HBV DNA in HepG2.2.15 culture medium, day 8, read-out: Half maximal inhibitory concentration (EC50) of HBV
Method: To evaluate the inhibitory effect of the compound on HBV by detecting content of HBV DNA in HepG2.2.15 cells in a real-time qPCR test, with EC50 of the compound as an indicator.
3.1. HepG2.2.15 cells (4×10^4 cells/well) were inoculated into a 96-well plate and cultured at 37° C. in 5% CO2 overnight. 3.2. On day 2, the compound was 3-fold diluted in gradient for a total of 8 dilution gradients. The compound at different concentrations was added into the culture wells in duplicate. The final concentration of DMSO in the culture medium was 1%. 1 μM GLS4 was used as a 100% inhibition control (the structure of GLS4 disclosed in WO2008154817A1 is as follows:
1% DMSO was used as a 0% inhibition control. 3.3. On day 5, the culture medium was replaced with a fresh culture medium containing the compound. 3.4. On day 8, the culture medium in the culture wells was collected, and the high-throughput DNA purification kit (Qiagen-51162) was used to extract DNA. For specific steps, refer to the product manual.
3.6. Each well of the 96-well PCR plate was added with 15 μL of the reaction mixture, and then with 10 μL of sample DNA or HBV DNA standard. 3.7. The reaction conditions for PCR: heating at 95° C. for 10 min, degeneration at 95° C. for 15 s, and extension at 60° C. for 1 min, with a total of 40 cycles.
3.8.1. Calculation of the inhibition percentage: % Inh.=[1−(DNA copy number in the sample−DNA copy number in 1 μM GLS4)/(DNA copy number in the DMSO control−DNA copy number in 1 μM GLS4)]×100. 3.8.2. Calculation of EC50: half maximal inhibitory concentration (EC50) of the compound for HBV was calculated using GraphPad Prism software. 3.8.3.

| SMILES | EC50 [nM] |
| --- | --- |
| CC1(NC(=O)C(=O)c2cc(C(=O)Nc3ccc(F)c(F)c3)c3n2CCC3)CCOCC1 [Compound 1] | 35 |
| CC1(NC(=O)C(=O)c2c(Cl)c(C(=O)Nc3ccc(F)c(F)c3)c3n2CCC3)CCOCC1 [Compound 2] | 3 |
| Cc1c(C(=O)Nc2ccc(F)c(F)c2)c2n(c1C(=O)C(=O)NC1(C)CCOCC1)CCC2 [Compound 3] | 5 |
| CC1(NC(=O)C(=O)c2c(Cl)c(C(=O)Nc3ccc(F)c(F)c3)c3n2CCC3)CCN(CC(=O)O)CC1 [Compound 4] | 580 |
| CC1(NC(=O)C(=O)c2c(Cl)c(C(=O)Nc3ccc(F)c(C#N)c3)c3n2CCC3)CCOCC1 [Compound 5] | 7 |
| CC1(NC(=O)C(=O)c2cc(C(=O)Nc3ccc(F)c(F)c3)c3n2CCCC3)CCOCC1 [Compound 6] | 110 |
| CC1(NC(=O)C(=O)c2c(Cl)c(C(=O)Nc3ccnc(Cl)c3)c3n2CCC3)CCOCC1 [Compound 7] | 30 |
| CC1(NC(=O)C(=O)c2c(Br)c(C(=O)Nc3ccc(F)c(F)c3)c3n2CCC3)CCOCC1 [Compound 8] | 9 |
| CC1(NC(=O)C(=O)c2c(C(F)(F)F)c(C(=O)Nc3ccc(F)c(F)c3)c3n2CCC3)CCOCC1 [Compound 9] | 41 |
| CC1(NC(=O)C(=O)c2c(Cl)c(C(=O)Nc3cc(F)c(F)c(F)c3)c3n2CCC3)CCOCC1 [Compound 10] | 2 |
| COCC1(NC(=O)C(=O)c2c(Cl)c(C(=O)Nc3ccc(F)c(F)c3)c3n2CCC3)CCOCC1 [Compound 11] | 4 |
| N#CC1(NC(=O)C(=O)c2c(Cl)c(C(=O)Nc3ccc(F)c(F)c3)c3n2CCC3)CCOCC1 [Compound 12] | 5 |
| CC1(NC(=O)C(=O)c2c(Cl)c(C(=O)Nc3ccc(F)c(F)c3)c3n2CCC3)CCC(CC(=O)O)CC1 (stereo not shown) [Compound 13] | 19 |
| C[C@@H](NC(=O)C(=O)c1c(Cl)c(C(=O)Nc2ccnc(Cl)c2)c2n1CCC2)C(F)(F)F [Compound 14] | 70 |
| O=C(NC12CCC(C(=O)O)(CC1)CC2)C(=O)c1c(Cl)c(C(=O)Nc2ccc(F)c(F)c2)c2n1CCC2 [Compound 15] | 37 |
| CC(C)(CCC(=O)O)NC(=O)C(=O)c1c(Cl)c(C(=O)Nc2ccc(F)c(F)c2)c2n1CCC2 [Compound 16] | 41 |
| C[C@]1(NC(=O)C(=O)c2c(Cl)c(C(=O)Nc3ccc(F)c(F)c3)c3n2CCC3)CC[C@H](C(=O)O)CC1 [Compound 19] | 20 |
| C[C@]1(NC(=O)C(=O)c2c(Cl)c(C(=O)Nc3ccc(F)c(F)c3)c3n2CCC3)CC[C@@H](C(=O)O)CC1 [Compound 20] | 11 |
| C[C@]1(NC(=O)C(=O)c2c(Cl)c(C(=O)Nc3ccc(F)c(F)c3)c3n2CCC3)CC[C@@H](CCC(=O)O)CC1 [Compound 21] | 3 |
| C[C@]1(NC(=O)C(=O)c2c(Cl)c(C(=O)Nc3ccc(F)c(F)c3)c3n2CCC3)CC[C@H](CCC(=O)O)CC1 [Compound 22] | 14 |
| CC(C)(CCCC(=O)O)NC(=O)C(=O)c1c(Cl)c(C(=O)Nc2ccc(F)c(F)c2)c2n1CCC2 [Compound 23] | 27 |
| N#CC1(NC(=O)C(=O)c2c(Cl)c(C(=O)Nc3ccc(F)c(F)c3)c3n2CCC3)CCC(CC(=O)O)CC1 (stereo not shown) [Compound 24] | 299 |
| CC(C)(C)OC(=O)C[C@H]1CC[C@](C)(NC(=O)C(=O)c2c(Cl)c(C(=O)Nc3cc(F)c(F)c(F)c3)c3n2CCC3)CC1 [Compound 25-3] | 4 |
| N#CC1(NC(=O)C(=O)c2c(Cl)c(C(=O)Nc3cc(F)c(F)c(F)c3)c3n2CCC3)CCC(CC(=O)O)CC1 (stereo not shown) [Compound 26] | 174 |
| CC(C)(CCCCC(=O)O)NC(=O)C(=O)c1c(Cl)c(C(=O)Nc2cc(F)c(F)c(F)c2)c2n1CCC2 [Compound 27] | 12 |
| O=C(O)CC1CCC(NC(=O)C(=O)c2c(Cl)c(C(=O)Nc3cc(F)c(F)c(F)c3)c3n2CCC3)(C(F)(F)F)CC1 (stereo not shown) [Compound 28] | 2 |
| O=C(O)C[C@H]1CC[C@](NC(=O)C(=O)c2c(Cl)c(C(=O)Nc3cc(F)c(F)c(F)c3)c3n2CCC3)(C(F)(F)F)CC1 [Compound 29] | 3 |
| O=C(O)C[C@H]1CC[C@@](NC(=O)C(=O)c2c(Cl)c(C(=O)Nc3cc(F)c(F)c(F)c3)c3n2CCC3)(C(F)(F)F)CC1 [Compound 30] | 1 |
| COC(=O)C[C@H]1CC[C@](C)(NC(=O)C(=O)c2c(Cl)c(C(=O)Nc3cc(F)c(F)c(F)c3)c3n2CCC3)CC1 [Compound 31] | 5 |

Biological target: T1, CYP1A2 (Homo sapiens, UniProt P05177)
T1 construct: from tissue; host or cells: human liver microsomes
T1 sequence (P05177 1-516): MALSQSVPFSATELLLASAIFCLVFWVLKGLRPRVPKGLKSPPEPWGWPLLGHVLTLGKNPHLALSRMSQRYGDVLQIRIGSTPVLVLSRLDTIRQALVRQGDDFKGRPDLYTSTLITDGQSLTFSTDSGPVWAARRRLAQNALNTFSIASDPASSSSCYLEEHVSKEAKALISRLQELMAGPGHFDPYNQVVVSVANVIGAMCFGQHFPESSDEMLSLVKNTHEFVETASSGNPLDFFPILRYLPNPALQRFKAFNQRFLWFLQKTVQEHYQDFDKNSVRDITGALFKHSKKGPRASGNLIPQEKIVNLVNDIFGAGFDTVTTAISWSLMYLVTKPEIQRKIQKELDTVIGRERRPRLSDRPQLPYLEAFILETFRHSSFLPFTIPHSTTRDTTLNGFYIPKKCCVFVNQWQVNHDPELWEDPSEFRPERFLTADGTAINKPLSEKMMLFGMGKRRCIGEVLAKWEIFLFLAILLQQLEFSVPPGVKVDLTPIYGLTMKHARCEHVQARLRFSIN
Test: Inhibition of human liver microsomal cytochrome P450 isoenzymes
Assay type: in vitro ADME
Conditions: human liver microsomes
Method: (§1) Experimental objective: to determine the inhibitory effect of the test compound on the activity of human liver microsomal cytochrome P450 isoenzymes (CYP1A2, CYP2C9, CYP2C19, CYP2D6 and CYP3A4). Experimental procedures: first, the test compound (10 mM) was diluted in gradient to prepare working solutions (100× final concentration) at concentrations of: 5, 1.5, 0.5, 0.15, 0.05, 0.015, and 0.005 mM, and working solutions of positive inhibitors for P450 isoenzymes (CYP1A2, CYP2C9, CYP2C19, CYP2D6, and CYP3A4) and the specific substrate mixtures thereof (5 in 1) were prepared simultaneously; human liver microsomes frozen in a−80° C. refrigerator were thawed on ice, and after all thawed, the human liver microsomes were diluted with PB to prepare a working solution at a specific concentration (0.253 mg/mL); 20 μL of the substrate mixture (20 μL of PB was added into the blank well) and 158 μL of the working solution of human liver microsomes were added into the reaction plate which was then placed on ice for use; then 2 μL of the test compound at each concentration (N=1) and a specific inhibitor (N=2) were added into the corresponding well, and the group without the inhibitor (test compound or the positive inhibitor) was added with a corresponding organic solvent as a control sample (the test compound control sample was 1:1 DMSO:MeOH; the positive control sample was 1:9 DMSO:MeOH); after pre-incubation under a 37° C. water bath for 10 min, 20 μL of a coenzyme factor (NADPH) solution was added into the reaction plate and incubated under a 37° C. water bath for 10 min, 400 μL of a cold acetonitrile solution (the internal standard was 200 ng/mL Tolbutamide and Labetalol) was added to terminate the reaction, and the reaction plate was placed on a shaker and shaken for 10 min; after centrifugation at 4,000 rpm for 20 min, 200 μL of the supernatant was collected and added to 100 μL of water to dilute the sample, and, finally, the plate was sealed, oscillated shaken evenly, and subjected to LC/MS/MS detection.

| SMILES | IC50 [nM] |
| --- | --- |
| CC1(NC(=O)C(=O)c2c(Cl)c(C(=O)Nc3ccc(F)c(F)c3)c3n2CCC3)CCOCC1 [Compound 2] | > 50000 |

Biological target: T2, CYP2C19 (Homo sapiens, UniProt P33261)
T2 construct: from tissue; host or cells: human liver microsomes
T2 sequence (P33261 whole entry): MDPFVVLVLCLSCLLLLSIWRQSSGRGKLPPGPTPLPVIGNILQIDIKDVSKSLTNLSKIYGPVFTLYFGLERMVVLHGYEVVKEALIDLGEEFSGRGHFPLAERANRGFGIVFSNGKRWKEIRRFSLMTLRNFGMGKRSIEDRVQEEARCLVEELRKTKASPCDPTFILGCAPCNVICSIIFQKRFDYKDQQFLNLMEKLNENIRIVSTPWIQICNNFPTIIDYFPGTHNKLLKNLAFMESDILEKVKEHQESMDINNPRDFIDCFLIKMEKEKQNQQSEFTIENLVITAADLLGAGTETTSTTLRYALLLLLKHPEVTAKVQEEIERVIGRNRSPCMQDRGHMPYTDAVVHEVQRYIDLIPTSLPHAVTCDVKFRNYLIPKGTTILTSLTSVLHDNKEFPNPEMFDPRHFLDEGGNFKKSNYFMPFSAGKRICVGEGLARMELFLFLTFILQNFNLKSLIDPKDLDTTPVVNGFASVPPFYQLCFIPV
Test: as above
Assay type: in vitro ADME
Conditions: human liver microsomes
Method: as §1

| SMILES | IC50 [nM] |
| --- | --- |
| CC1(NC(=O)C(=O)c2c(Cl)c(C(=O)Nc3ccc(F)c(F)c3)c3n2CCC3)CCOCC1 [Compound 2] | > 50000 |

Biological target: T3, CYP2C9 (Homo sapiens, UniProt P11712)
T3 construct: from tissue; host or cells: human liver microsomes
T3 sequence (P11712 whole entry): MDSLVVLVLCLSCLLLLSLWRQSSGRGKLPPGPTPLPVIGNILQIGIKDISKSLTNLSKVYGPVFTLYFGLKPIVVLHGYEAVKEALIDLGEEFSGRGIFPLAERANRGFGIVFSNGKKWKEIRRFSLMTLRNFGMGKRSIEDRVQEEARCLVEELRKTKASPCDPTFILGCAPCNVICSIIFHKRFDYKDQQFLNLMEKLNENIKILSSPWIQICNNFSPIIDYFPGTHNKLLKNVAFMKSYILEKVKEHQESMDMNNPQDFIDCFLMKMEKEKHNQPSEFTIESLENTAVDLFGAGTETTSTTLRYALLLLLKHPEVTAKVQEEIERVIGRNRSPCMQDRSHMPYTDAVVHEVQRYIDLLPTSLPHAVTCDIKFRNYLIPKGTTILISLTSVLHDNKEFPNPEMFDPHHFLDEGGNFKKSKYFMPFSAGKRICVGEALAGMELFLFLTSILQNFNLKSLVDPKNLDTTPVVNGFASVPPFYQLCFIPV
Test: as above
Assay type: in vitro ADME
Conditions: human liver microsomes
Method: as §1

| SMILES | IC50 [nM] |
| --- | --- |
| CC1(NC(=O)C(=O)c2c(Cl)c(C(=O)Nc3ccc(F)c(F)c3)c3n2CCC3)CCOCC1 [Compound 2] | > 50000 |

Biological target: T4, CYP2D6 (Homo sapiens, UniProt P10635)
T4 construct: from tissue; host or cells: human liver microsomes
T4 sequence (P10635 whole entry): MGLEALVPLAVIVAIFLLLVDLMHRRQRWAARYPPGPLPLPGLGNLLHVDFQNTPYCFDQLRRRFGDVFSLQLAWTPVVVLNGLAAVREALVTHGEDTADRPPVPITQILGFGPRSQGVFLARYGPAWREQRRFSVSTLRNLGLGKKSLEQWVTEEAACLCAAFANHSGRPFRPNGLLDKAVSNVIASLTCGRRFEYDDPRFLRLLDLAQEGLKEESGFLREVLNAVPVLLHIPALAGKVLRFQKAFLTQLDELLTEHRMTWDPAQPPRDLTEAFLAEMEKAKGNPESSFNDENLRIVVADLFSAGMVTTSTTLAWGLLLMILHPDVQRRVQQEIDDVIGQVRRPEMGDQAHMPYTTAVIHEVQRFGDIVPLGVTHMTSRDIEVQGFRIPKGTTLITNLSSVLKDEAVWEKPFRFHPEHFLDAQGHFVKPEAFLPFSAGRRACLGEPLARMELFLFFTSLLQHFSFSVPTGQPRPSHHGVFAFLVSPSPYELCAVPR
Test: as above
Assay type: in vitro ADME
Conditions: human liver microsomes
Method: as §1

| SMILES | IC50 [nM] |
| --- | --- |
| CC1(NC(=O)C(=O)c2c(Cl)c(C(=O)Nc3ccc(F)c(F)c3)c3n2CCC3)CCOCC1 [Compound 2] | > 50000 |

Biological target: T5, CYP3A4 (Homo sapiens, UniProt P08684)
T5 construct: from tissue; host or cells: human liver microsomes
T5 sequence (P08684 whole entry): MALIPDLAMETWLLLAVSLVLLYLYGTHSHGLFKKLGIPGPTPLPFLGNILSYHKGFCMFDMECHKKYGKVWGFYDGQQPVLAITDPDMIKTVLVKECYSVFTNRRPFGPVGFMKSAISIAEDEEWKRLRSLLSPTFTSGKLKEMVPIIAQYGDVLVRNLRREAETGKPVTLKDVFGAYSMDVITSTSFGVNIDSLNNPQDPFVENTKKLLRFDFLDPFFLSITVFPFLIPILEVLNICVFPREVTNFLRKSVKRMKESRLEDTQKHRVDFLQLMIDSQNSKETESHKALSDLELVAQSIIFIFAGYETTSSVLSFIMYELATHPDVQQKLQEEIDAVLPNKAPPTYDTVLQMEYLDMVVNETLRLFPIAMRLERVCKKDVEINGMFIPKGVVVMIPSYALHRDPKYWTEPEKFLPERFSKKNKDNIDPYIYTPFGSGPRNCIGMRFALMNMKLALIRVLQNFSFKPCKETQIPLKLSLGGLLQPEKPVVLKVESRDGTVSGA
Test: as above
Assay type: in vitro ADME
Conditions: human liver microsomes
Method: as §1

| SMILES | IC50 [nM] |
| --- | --- |
| CC1(NC(=O)C(=O)c2c(Cl)c(C(=O)Nc3ccc(F)c(F)c3)c3n2CCC3)CCOCC1 [Compound 2] | > 50000 |
